Experimental data taken from patent publication US6358885B1, “Substituted phenylheterocyclic herbicides” (Mississippi State University, priority 1992, dated 2002).

Columns and labels:
Experiment in all cases: Test F preemergence/postemergence greenhouse plant response rating 0 to 100
wild oat = type: in vivo, Avena fatua; conditions: POSTEMERGENCE, 0 to 100 scale; for Wild oat (1) plant response rating: stage (1) two to three leaves; for Wild oat (2) plant response rating: stage (2) approximately four leaves or initial tillering
Source text: (§1) Compounds evaluated in this test were formulated in a non-phytoxic solvent and applied to the soil surface before plant seedlings emerged (preemergence application) and to plants that were in the one-to-four leaf stage (postemergence application). A sandy loam soil was used for the preemergence test while a mixture of sandy loam soil and greenhouse potting mix in a 60:40 ratio was used for the postemergence test. Test compounds were applied within approximately one day after planting seeds for the preemergence test. Plantings of these crops and weed species were adjusted to produce plants of appropriate size for the postemergence test. All plant species were grown using normal greenhouse practices. Crop and weed species include winter barley (Hordeum vulgare cv. ‘Igri’), blackgrass (Alopecurus myosuroides), chickweed (Stellaria media), downy brome (Bromus tectorum), field violet (Viola arvensis), galium (Galium aparine), green foxtail (Setaria viridis), kochia (Kochia scoparia), lambsquarters (Chenopodium album), speedwell (Veronica persica), rape (Brassica napus), ryegrass (Lolium multiflorum), sugar beet (Beta vulgaris cv. ‘USl’), sunflower (Helianthus annuus cv. ‘Russian Giant’), spring wheat (Triticum aestivum cv. ‘ERA’), winter wheat (Triticum aestivum cv. ‘Talent’), wild buckwheat (Polygonum convolvulus), wild mustard (Sinapis arvensis), wild oat (Avena fatua), and wild radish (Raphanus raphanistrum). Blackgrass, galium and wild oat were treated at two growth stages. […] Treated plants and untreated controls were maintained in a greenhouse for approximately 21 to 28 days, after which all treated plants were compared to untreated controls and visually evaluated. […] A dash response (-) means no test result.

blackgrass = type: in vivo, Alopecurus myosuroides; conditions: POSTEMERGENCE, 0 to 100 scale; for Blackgrass (1) plant response rating: stage (1) two to three leaves; for Blackgrass (2) plant response rating: stage (2) approximately four leaves or initial tillering
Source text: as §1

wild buckwheat = type: in vivo, Polygonum convolvulus; conditions: POSTEMERGENCE, 0 to 100 scale
Source text: as §1

galium = type: in vivo, Galium aparine; conditions: POSTEMERGENCE, 0 to 100 scale; for Galium (1) plant response rating: stage (1) two to three leaves; for Galium (2) plant response rating: stage (2) approximately four leaves or initial tillering
Source text: as §1

spring wheat = type: in vivo, Triticum aestivum cv. ‘ERA’; conditions: POSTEMERGENCE, 0 to 100 scale
Source text: as §1

kochia = type: in vivo, Kochia scoparia; conditions: POSTEMERGENCE, 0 to 100 scale
Source text: as §1

speedwell = type: in vivo, Veronica persica; conditions: POSTEMERGENCE, 0 to 100 scale
Source text: as §1

chickweed = type: in vivo, Stellaria media; conditions: POSTEMERGENCE, 0 to 100 scale
Source text: as §1

winter barley = type: in vivo, Hordeum vulgare cv. ‘Igri’; conditions: POSTEMERGENCE, 0 to 100 scale
Source text: as §1

wild radish = type: in vivo, Raphanus raphanistrum; conditions: POSTEMERGENCE, 0 to 100 scale
Source text: as §1

winter wheat = type: in vivo, Triticum aestivum cv. ‘Talent’; conditions: POSTEMERGENCE, 0 to 100 scale
Source text: as §1

downy brome = type: in vivo, Bromus tectorum; conditions: POSTEMERGENCE, 0 to 100 scale
Source text: as §1

wild mustard = type: in vivo, Sinapis arvensis; conditions: POSTEMERGENCE, 0 to 100 scale
Source text: as §1

lambsquarters = type: in vivo, Chenopodium album; conditions: POSTEMERGENCE, 0 to 100 scale
Source text: as §1

C#CC(C)Oc1cc(-c2nn3c(c2Cl)CCCC3)c(F)cc1Cl (stereo not drawn) [Compound 36]
Wild oat (1) plant response rating (wild oat; Rate 4 g/ha): 10
Wild oat (2) plant response rating (wild oat; Rate 4 g/ha): 10
Wild oat (1) plant response rating (wild oat; Rate 8 g/ha): 20
Wild oat (2) plant response rating (wild oat; Rate 8 g/ha): 10
Wild oat (1) plant response rating (wild oat; Rate 16 g/ha): 20
Wild oat (2) plant response rating (wild oat; Rate 16 g/ha): 20
Wild oat (1) plant response rating (wild oat; Rate 32 g/ha): 20
Wild oat (2) plant response rating (wild oat; Rate 32 g/ha): 20
Blackgrass (1) plant response rating (blackgrass; Rate 4 g/ha): 0
Blackgrass (2) plant response rating (blackgrass; Rate 4 g/ha): 0
Blackgrass (1) plant response rating (blackgrass; Rate 8 g/ha): 0
Blackgrass (2) plant response rating (blackgrass; Rate 8 g/ha): 0
Blackgrass (1) plant response rating (blackgrass; Rate 16 g/ha): 0
Blackgrass (2) plant response rating (blackgrass; Rate 16 g/ha): 10
Blackgrass (1) plant response rating (blackgrass; Rate 32 g/ha): 5
Blackgrass (2) plant response rating (blackgrass; Rate 32 g/ha): 20
Wild buckwheat plant response rating (wild buckwheat; Rate 16 g/ha): 100
Wild buckwheat plant response rating (wild buckwheat; Rate 32 g/ha): 100
Galium (1) plant response rating (galium; Rate 4 g/ha): 20
Galium (2) plant response rating (galium; Rate 4 g/ha): 40
Galium (1) plant response rating (galium; Rate 8 g/ha): 50
Galium (2) plant response rating (galium; Rate 8 g/ha): 60
Galium (1) plant response rating (galium; Rate 16 g/ha): 50
Galium (2) plant response rating (galium; Rate 16 g/ha): 60
Galium (1) plant response rating (galium; Rate 32 g/ha): 60
Galium (2) plant response rating (galium; Rate 32 g/ha): 70
Wheat (Spring) plant response rating (spring wheat; Rate 4 g/ha): 15
Wheat (Spring) plant response rating (spring wheat; Rate 8 g/ha): 15
Wheat (Spring) plant response rating (spring wheat; Rate 16 g/ha): 15
Wheat (Spring) plant response rating (spring wheat; Rate 32 g/ha): 20
Kochia plant response rating (kochia; Rate 4 g/ha): 20
Kochia plant response rating (kochia; Rate 8 g/ha): 60
Kochia plant response rating (kochia; Rate 16 g/ha): 60
Kochia plant response rating (kochia; Rate 32 g/ha): 100
Persn Speedwell plant response rating (speedwell; Rate 4 g/ha): 100
Persn Speedwell plant response rating (speedwell; Rate 8 g/ha): 100
Persn Speedwell plant response rating (speedwell; Rate 16 g/ha): 100
Persn Speedwell plant response rating (speedwell; Rate 32 g/ha): 100
Chickweed plant response rating (chickweed; Rate 4 g/ha): 50
Chickweed plant response rating (chickweed; Rate 8 g/ha): 100
Chickweed plant response rating (chickweed; Rate 16 g/ha): 100
Chickweed plant response rating (chickweed; Rate 32 g/ha): 100
Winter Barley plant response rating (winter barley; Rate 4 g/ha): 20
Winter Barley plant response rating (winter barley; Rate 8 g/ha): 20
Winter Barley plant response rating (winter barley; Rate 16 g/ha): 20
Winter Barley plant response rating (winter barley; Rate 32 g/ha): 25
Wild radish plant response rating (wild radish; Rate 4 g/ha): 100
Wild radish plant response rating (wild radish; Rate 8 g/ha): 100
Wild radish plant response rating (wild radish; Rate 16 g/ha): 100
Wild radish plant response rating (wild radish; Rate 32 g/ha): 100
Wheat (Winter) plant response rating (winter wheat; Rate 4 g/ha): 20
Wheat (Winter) plant response rating (winter wheat; Rate 8 g/ha): 20
Wheat (Winter) plant response rating (winter wheat; Rate 16 g/ha): 20
Wheat (Winter) plant response rating (winter wheat; Rate 32 g/ha): 50
Downy brome plant response rating (downy brome; Rate 4 g/ha): 0
Downy brome plant response rating (downy brome; Rate 8 g/ha): 0
Downy brome plant response rating (downy brome; Rate 16 g/ha): 0
Downy brome plant response rating (downy brome; Rate 32 g/ha): 5
Wild mustard plant response rating (wild mustard; Rate 4 g/ha): 100
Wild mustard plant response rating (wild mustard; Rate 8 g/ha): 100
Wild mustard plant response rating (wild mustard; Rate 16 g/ha): 100
Wild mustard plant response rating (wild mustard; Rate 32 g/ha): 100
Lambsquarters plant response rating (lambsquarters; Rate 4 g/ha): 50
Lambsquarters plant response rating (lambsquarters; Rate 8 g/ha): 50
Lambsquarters plant response rating (lambsquarters; Rate 16 g/ha): 60
Lambsquarters plant response rating (lambsquarters; Rate 32 g/ha): 60
